Common to all, as to test: relative viability (nuclei count vs DMSO), 5 days (fraction); higher = more cells survive
Compound in assay [1]: Cc1cnc(Nc2ccc(OCCN3CCCC3)cc2)nc1Nc1cccc(S(=O)(=O)NC(C)(C)C)c1 [Fedratinib] + Cc1cc(Nc2cc(N3CCN(C)CC3)nc(Sc3ccc(NC(=O)C4CC4)cc3)n2)n[nH]1 [Tozasertib] (partner 0.1 µM)
Summed up: (§1)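 Values are medians from duplicate plates. Each reflects relative viability, defined as the nuclei count of treated wells over that of vehicle wells. Lung cancer cell lines in 1536-well plates were pin-tool dosed one day after seeding with one drug alone or with a fixed anchor-drug dose plus five library-drug doses (not always all listed) in √10 steps, then fixed, stained and imaged at 4× after 5 days.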

Compound in assay [2]: Cc1cnc(Nc2ccc(OCCN3CCCC3)cc2)nc1Nc1cccc(S(=O)(=O)NC(C)(C)C)c1 [Fedratinib] + C[C@@H](Oc1cc(-c2cnn(C3CCNCC3)c2)cnc1N)c1c(Cl)ccc(F)c1Cl [Crizotinib] (partner 1 µM)
Summed up:
as §1

Compound in assay [3]: Cc1cnc(Nc2ccc(OCCN3CCCC3)cc2)nc1Nc1cccc(S(=O)(=O)NC(C)(C)C)c1 [Fedratinib] + C[C@]1(O)C[C@@H](c2nc(-c3ccc4ccc(-c5ccccc5)nc4c3)c3c(N)nccn32)C1 [Linsitinib] (partner 1 µM)
A digest of the protocol: as §1

Compound in assay [4]: COC1=CC=C(C=C1)COC2=C(C=C(C=C2)CC3=CN=C(N=C3N)N)OC [GW-2580] + CC1(C)CCC(c2ccc(Cl)cc2)=C(CN2CCN(c3ccc(C(=O)NS(=O)(=O)c4ccc(N[C@H](CCN5CCOCC5)CSc5ccccc5)c(S(=O)(=O)C(F)(F)F)c4)cc3)CC2)C1 [Navitoclax] (partner 0.5 µM)
Summed up:
as §1

Compound in assay [5]: COC1=CC=C(C=C1)COC2=C(C=C(C=C2)CC3=CN=C(N=C3N)N)OC [GW-2580] + Nc1ncn([C@H]2C[C@H](O)[C@@H](CO)O2)c(=O)n1 [Decitabine] (partner 2 µM)
Summed up: as §1

Compound in assay [6]: COC1=CC=C(C=C1)COC2=C(C=C(C=C2)CC3=CN=C(N=C3N)N)OC [GW-2580] + COc1cccc2cc(-c3nc([C@H]4CC[C@H](C(=O)O)CC4)n4ncnc(N)c34)[nH]c12 [OSI-027] (partner 0.5 µM)
Summed up:
as §1

Results on one cell line are retold here after the supplement of paper PMC10307832.

Take UMC-11: the relative viability in assay [1] (first compound 0.1 µM) was determined as 0.229; in assay [1] (first compound 0.3162 µM), 0.228; in assay [1] (first compound 1 µM), 0.193; in assay [2] (first compound 0.1 µM), 0.573; in assay [2] (first compound 0.3162 µM) it was 0.581; in assay [2] (first compound 1 µM) it was 0.379. The relative viability is 0.995 in assay [3] (first compound 0.1 µM); 0.864 in assay [3] (first compound 0.3162 µM); 0.848 in assay [3] (first compound 1 µM); 0.309 in assay [4] (first compound 0.08 µM); 0.342 in assay [4] (first compound 0.8 µM); 0.291 in assay [4] (first compound 2.53 µM). The relative viability turned out to be 0.324 in assay [4] (first compound 8 µM); 0.617 in assay [5] (first compound 0.08 µM); 0.424 in assay [5] (first compound 0.8 µM); 0.586 in assay [5] (first compound 8 µM); 0.531 in assay [6] (first compound 0.08 µM); 0.508 in assay [6] (first compound 0.8 µM). For the same cell line, the relative viability in assay [6] (first compound 2.53 µM) turned out to be 0.515; in assay [6] (first compound 8 µM), 0.439.
